Laboratory results published in patent US6423834B1, “KDO aldolase and condensation reactions employed therewith” (The Scripps Research Institute, priority 1992, dated 2002).
Like-named read-outs stand apart in the source and are kept apart here.

Columns and labels:
[1] = system: KDO aldolase (EC 4.1.2.23); assay: KDO aldolase-catalyzed aldol condensation of sugars with pyruvate (kinetic and relative rate measurements via remaining pyruvate); format: biochemical, Aureobacterium barkerei strain KDO-37-2; settings: for rel. V (relative rate of aldol condensation): pyruvate 10 mM, sugar 0.5 M, 0.1 M phosphate pH 7.5, 37° C., relative to D-arabinose
From the text: (§1) Partially purified KDO aldolase simply obtained by ammonium sulfate precipitation (8.0 U/mL; 0.19 U/mg for degradation of KDO) was used in substrate-specificity studies reported herein. The KDO aldolase employed for the kinetic analysis reported herein, was further purified via DEAE sepharose and phenyl sepharose column chromatography to a specific activity of 5.7 U/mg. […] The enzymatic reaction favors the cleavage of KDO, with the equilibrium constant Keq=[pyruvate][arabinose]/KDO=9×10^−2M.
The rates for aldolase-catalyzed reactions were obtained by measuring the amount of remaining pyruvate, according the method of Kim (supra). The reactions were carried out in 0.1 M phosphate buffer (pH 7.5) containing: varied concentrations of pyruvate, 2.0, 3.33, 5, and 10 mM; varied concentrations of D-arabinose, 0.2, 0.25, 0.33, and 0.50 M in 0.5 mL of solution. Each solution was incubated at 37° C. Periodically, a small aliquot (25-100 μL) was withdrawn and mixed with an assay solution (1.4 mL) containing 0.1 M phosphate (pH 7.5) buffer, 0.3 mM NADH, and 20-30 U of L-lactate dehydrogenase. The decrease in absorbance at 340 nm was measured and converted into the amount of the unreacted pyruvate using 6220 M^−1cm^−1 for the molecular absorbance of NADH. The kinetic parameters were obtained from the Lineweaver-Burk plots.
For the relative rate measurements, the concentration of pyruvate (fluoropyruvate) and sugar were fixed at 10 mM and 0.5 M, respectively. Other conditions were the same as above.

[2] = system: KDO aldolase; settings: enzyme from E. coli; cited from earlier work
[3] = system: KDO aldolase; settings: enzyme from Aerobacter cloacae; cited from earlier work
[4] = system: KDO aldolase (EC 4.1.2.23); assay: KDO aldolase degradation (cleavage) of KDO; format: biochemical, Aureobacterium barkerei strain KDO-37-2; settings: read-out: Km in the course of degradation
Description: It is disclosed herein that the Gram-positive bacterium Aureobacterium barkerei strain KDO-37-2 can be induced to contain high levels of KDO aldolase. The aldolase activity from this source was assayed according to Aminoff's method (Biochem. J. 1961, 81, 384). Two liters of culture contained 10.2 U based on the degradation of KDO. This KDO activity is 4 times and 8 times higher than the corresponding KDO activity from Escherichia coli K-12 and Aerobacter cloacae, respectively, as reported by Gharambor (supra).
as §1
With one slight modification, the incubation was carried out according to the procedure reported by Gharambor (supra). […] The enzyme activity was determined to be 1.45 U/mL for the degradation of KDO according to the method of Aminoff (Biochem. J. 1961, 81, 384). […]

[5] = Proportion of β-isomer by comparing 1H NMR spectra; format: physicochemical
Description: Finally, the aldol reaction with an unnatural sugar containing a fluorine atom was conducted to give 18 (19% of 19). By comparing the ^1H NMR spectra, the proportion of the β-isomer (10.71) of 18 was ca. 1.5 times higher than that of KDO (6.9%), probably due to the absence of furanose and 1<<5 lactone forms. […] (Kohlbrenner, W. E. and Fesik, S. W., J. Biol. Chem. 1985, 260, 14695.) We therefore synthesized 18 in a larger scale by combining the use of KDO aldolase and pyruvate decarboxylase, which made the workup procedure much easier.

## O=C[C@H](O)[C@H](O)[C@H](O)CO [D-ribose]
[1]
  rel. V (relative rate of aldol condensation): 72%
[2]
  rel. V: < 5%
[3]
  rel. V: < 5%

## O=C[C@@H](O)[C@H](O)[C@H](O)CO [D-arabinose, reference compound]
[1]; condensation of D-arabinose with pyruvate, enzyme purified to 5.7 U/mg
  Vmax: 0.73 U/mg

## C[C@H](O)[C@@H](O)[C@@H](O)[C@H](O)C=O [L-fucose]
[1]
  rel. V (relative rate of aldol condensation): rate not detectable

## O=C(O)C(=O)CF [fluoropyruvate]
[1]
  accepted as substrate for the condensation: neither fluoropyruvate nor ketohexose was accepted

## O=CC[C@H](O)[C@H](O)CO [2-deoxy-D-ribose]
[1]
  rel. V (relative rate of aldol condensation): 71%

## O=C[C@@H](O)[C@H](O)[C@H](O)[C@H](O)CO [D-altrose]
[1]
  rel. V (relative rate of aldol condensation): 25%

## O=C(O)C(=O)C[C@@H](O)[C@@H](O)[C@H](O)[C@H](O)CO [KDO, 3-deoxy-D-manno-2-octulosonic acid]
[4]
  Km: 6 mM
[5]
  proportion of the β-isomer: 6.9%
